Results published in patent US9340559B2, “Proteasome inhibitor delanzomib for use in the treatment of lupus” (Cephalon, Inc., priority 2011, dated 2016).

Columns and labels:
Assay type in all cases: in vivo, mouse
MRL/lpr mice = assay: Antibody secreting B-cell Elispot (anti-Smith Ag, anti-dsDNA, anti-chromatin ASC), spleens of MRL/lpr mice
Description: (§1) FIG. 9 depicts frequency of anti-Smith antigen and anti-dsDNA antibody secreting cells in the spleens of MRL/lpr mice. MRL/lpr treated mice spleens were processed for splenocytes for ex vivo Elispot assays. Elispot wells were coated with 10 μg/mL of smith antigen, dsDNA or ovalbumin protein. Fresh, whole splenocytes were added to each well at 500,000 cells per well in cell culture medium. Cells were incubated overnight at 37° C. Developed wells provided spots that were counted as frequency of ASCs per million splenocytes.
as §1, with “10” for “9”, “depicts the” for “depicts”, “anti-chromatin” for “anti-Smith antigen and anti-dsDNA”, “boiled chicken chromatin” for “smith antigen, dsDNA”, “[…]” for “500,000”
B-cell Elispot components are ordered from MabTech (Nacka Strand, Sweden) and nitrocellulose IP filter plates are ordered from Millipore (Billerica, Mass.). Elispot wells are coated with either purified bovine thymus dsDNA (Sigma), purified bovine Smith antigen (GenWay) or boiled filtered purified chicken chromatin from lysed chicken red blood cells (Rockland, Gilbertsville, Pa.) at 10 μg/mL. Spleens are processed using glass homogenization, filtered through a 60 μm sterile cell strainer and red blood cells (RBCs) lysed using BioLegend (San Diego, Calif.) lysis buffer. Processed splenocytes are added to each well in culture medium. To avoid skewing of true ex vivo frequencies of antibody secreting cell types (ASCs), cells are not stimulated with a polyclonal mitogen like LPS, but rather incubated in media alone to allow monitoring of genuine ex vivo antibody release. Anti-mouse pan-IgG is used as a positive control for total IgG producing ASCs and is used to normalize results. Frequencies for each antigen are identified in an initial test phase for each model. For chromatin and total IgG only, 30,000 splenocytes are added to each well; for Smith antigen and dsDNA, 500,000 cells are added to each well. Different numbers of splenocytes are added for different antigens due to saturation limits of spot frequencies per well. These limits are previously established. B-cell Elispots are incubated overnight at 37° C. To develop each assay, secondary antibody is added to each well, incubated, washed and alkaline phosphatase strepavidin is used as the conjugate; substrate used is BCIP-NBT. Plates are developed until spots are visible. All Elispot analyses are performed using an Immunospot C.T.L. scanner and Biospot software (Cellular Technology Ltd., Shaker Heights, Ohio). Results are shown as values from which media and cells only wells are subtracted. Some values are negative due to high background.

NZM mice [1] = assay: Antibody secreting B-cell Elispot (anti-chromatin, total IgG ASC), spleens of NZM mice (Example 2)
Description: as §1, with “34” for “9”, “depicts the” for “depicts”, “anti-chromatin” for “anti-Smith antigen and anti-dsDNA”, “NZM” for “MRL/lpr”, “boiled chicken chromatin” for “smith antigen, dsDNA”, “50,000” for “500,000”
as §1, with “35” for “9”, “depicts the” for “depicts”, “total IgG” for “anti-Smith antigen and anti-dsDNA”, “NZM” for “MRL/lpr”, “anti-mouse IgG, IgH, and IgL chains.” for “smith antigen, dsDNA or ovalbumin protein.”, “50,000” for “500,000”
B-cell Elispot components are ordered from MabTech (Nacka Strand, Sweden) and nitrocellulose IP filter plates are ordered from Millipore (Billerica, Mass.). Elispot wells are coated with either purified bovine thymus dsDNA (Sigma), purified bovine Smith antigen (GenWay) or boiled filtered purified chicken chromatin from lysed chicken red blood cells (Rockland, Gilbertsville, Pa.) at 10 μg/mL. Spleens are processed using glass homogenization (frosted slides). Dispersed cell contents are washed in sterile HBSS and RBCs lysed using 1×RBC lysis buffer (BioLegend, Cat #420301). Processed splenocytes are added to each well and are not stimulated with lipopolysaccharide (LPS) to avoid skewing of true ex vivo frequencies of antibody-secreting cell types (ASCs). Anti-mouse pan-IgG is used as a positive control for total IgG producing ASCs and is used to normalize results. Frequencies for each antigen are identified in an initial test phase for each model. For chromatin and total IgG only, 30,000 splenocytes are added to each well; for Smith antigen and dsDNA, 500,000 cells are added to each well. Different numbers of splenocytes are added for different antigens due to saturation limits of spot frequencies per well. B-cell Elispots are incubated overnight at 37° C. To develop each assay, secondary antibody is added to each well, incubated, washed and alkaline phosphatase strepavidin (Jackson ImmunoResearch, West Grove, Pa.) is used as the conjugate; substrate used is BCIP-NBT (MabTech, Cincinnati, Ohio). Plates are developed until spots are visible. All Elispot analyses are performed using an Immunospot C.T.L. scanner and Biospot software (Cellular Technology Ltd., Shaker Heights, Ohio). Results are shown as values from which media and cells only wells are subtracted. Some values are negative due to high background.

NZM mice [2] = assay: Collagen type-I cross-linker (CTx) bone resorption biomarker ELISA, serum of NZM mice; settings: for serum CTx levels compared to vehicle: treatment groups
Description: Assay is performed as instructed by the manufacturer. Briefly, biotinylated ratlaps antigen is first added in each well of a 96-well ELISA plate. This plate is covered and incubated for 30 minutes at RT. Plate is washed five times with washing solution and incubated with standards or unknown samples in appropriate wells followed by primary Ab. Incubate overnight for 18 hours at 4° C. followed by washing with buffer. Secondary incubation includes a peroxidase conjugated goat anti-rabbit IgG added to each well and incubation at RT for 1 hour. Incubation with chromogenic substrate solution for 15 minutes at RT in the dark develops the plate for analysis. Stopping solution halts the reaction, absorbance is measured within 2 hours at 450 nm.

## CC(C)C[C@H](NC(=O)[C@@H](NC(=O)c1cccc(-c2ccccc2)n1)[C@@H](C)O)B(O)O [COMPOUND A, [(1R)-1-[[(2S,3R)-3-hydroxy-2-[6-phenyl-pyridine-2-carbonyl)amino]-1-oxobutyl]amino]-3-methylbutylboronic acid]
MRL/lpr mice; G1: 3 mg/kg iv, 1× wk
  ASC EOS Smith Ag, percent change vs vehicle: −97%
  ASC EOS chromatin, percent change vs vehicle: −89%
  ASC EOS dsDNA, percent change vs vehicle: −80%
MRL/lpr mice; G2: 3 mg/kg iv, 2× wk
  ASC EOS Smith Ag, percent change vs vehicle: −110%
  ASC EOS chromatin, percent change vs vehicle: −98%
  ASC EOS dsDNA, percent change vs vehicle: −84%
MRL/lpr mice; G3: 10 mg/kg po, 2× wk
  ASC EOS Smith Ag, percent change vs vehicle: −86%
  ASC EOS chromatin, percent change vs vehicle: −79%
  ASC EOS dsDNA, percent change vs vehicle: −82%
MRL/lpr mice; Group 1
  anti-Smith Ag IgG ASC frequency decrease vs vehicle: 97%
  anti-dsDNA IgG ASC frequency decrease vs vehicle: 80%
MRL/lpr mice; Group 2
  anti-Smith Ag IgG ASC frequency decrease vs vehicle: 100%
  anti-dsDNA IgG ASC frequency decrease vs vehicle: 84%
MRL/lpr mice; Group 3
  anti-Smith Ag IgG ASC frequency decrease vs vehicle: 86%
  anti-dsDNA IgG ASC frequency decrease vs vehicle: 82%
NZM mice [1]; COMPOUND A groups
  anti-chromatin ASC decrease vs vehicle: 96-100%
NZM mice [1]; G1 3 mg/kg 1× wk ip
  p, frequency of anti-chromatin antibody secreting cells in spleen vs G5 Bortezomib 0.3 mg/kg 1× wk ip: p < 0.001
  p, frequency of anti-chromatin antibody secreting cells in spleen vs G6 Bortezomib 0.3 mg/kg 2× wk ip: p < 0.01
  p, frequency of anti-chromatin antibody secreting cells in spleen vs G8 Dex 1.5 mg/kg 3× wk ip: p < 0.01
  p, frequency of anti-chromatin antibody secreting cells in spleen vs G9 Vehicle 1× wk ip: p < 0.01
  p, frequency of total IgG antibody secreting cells in spleen vs G5 Bortezomib 0.3 mg/kg 1× wk ip: p < 0.01
  p, frequency of total IgG antibody secreting cells in spleen vs G7 CTX 50 mg/kg 1× wk ip: p < 0.01
  p, frequency of total IgG antibody secreting cells in spleen vs G8 Dex 1.5 mg/kg 3× wk ip: p < 0.01
  p, frequency of total IgG antibody secreting cells in spleen vs G9 Vehicle 1× wk ip: p < 0.05
NZM mice [1]; G1 3 mg/kg ip, 1× wk
  ASC chromatin EOS, percent change vs vehicle: −96%
  ASC total IgG EOS, percent change vs vehicle: −62%
NZM mice [1]; G2 3 mg/kg 2× wk ip
  p, frequency of anti-chromatin antibody secreting cells in spleen vs G5 Bortezomib 0.3 mg/kg 1× wk ip: P < 0.01
  p, frequency of anti-chromatin antibody secreting cells in spleen vs G6 Bortezomib 0.3 mg/kg 2× wk ip: p < 0.05
  p, frequency of anti-chromatin antibody secreting cells in spleen vs G9 Vehicle 1× wk ip: p < 0.01
  p, frequency of total IgG antibody secreting cells in spleen vs G5 Bortezomib 0.3 mg/kg 1× wk ip: p < 0.001
  p, frequency of total IgG antibody secreting cells in spleen vs G7 CTX 50 mg/kg 1× wk ip: p < 0.01
  p, frequency of total IgG antibody secreting cells in spleen vs G8 Dex 1.5 mg/kg 3× wk ip: p < 0.01
  p, frequency of total IgG antibody secreting cells in spleen vs G9 Vehicle 1× wk ip: p < 0.01
NZM mice [1]; G2 3 mg/kg ip, 2× wk
  ASC chromatin EOS, percent change vs vehicle: −100%
  ASC total IgG EOS, percent change vs vehicle: −67%
NZM mice [1]; spleen
  total IgG producing ASC decrease vs vehicle: 62-67%
NZM mice [2]; G1 3 mg/kg 1× wk ip
  p, serum concentration of collagen type I cross-linker vs G8 Dex 1.5 mg/kg 3× wk ip: P < 0.01
NZM mice [2]; G1 3 mg/kg ip, 1× wk
  Serum CTx linker AUC, percent change vs vehicle: −41%
NZM mice [2]; G2 3 mg/kg 2× wk ip
  p, serum concentration of collagen type I cross-linker vs G8 Dex 1.5 mg/kg 3× wk ip: P < 0.01
NZM mice [2]; G2 3 mg/kg ip, 2× wk
  Serum CTx linker AUC, percent change vs vehicle: −40%
NZM mice [2]
  serum CTx levels compared to vehicle: no change in CTx levels

## CC(C)C[C@H](NC(=O)[C@H](Cc1ccccc1)NC(=O)c1cnccn1)B(O)O [bortezomib, reference compound]
MRL/lpr mice; G4: 0.5 mg/kg iv, 1× wk
  ASC EOS Smith Ag, percent change vs vehicle: −74%
  ASC EOS chromatin, percent change vs vehicle: −64%
  ASC EOS dsDNA, percent change vs vehicle: −58%
MRL/lpr mice; G5: 0.3 mg/kg iv, 2× wk
  ASC EOS Smith Ag, percent change vs vehicle: +73%
  ASC EOS chromatin, percent change vs vehicle: +5%
  ASC EOS dsDNA, percent change vs vehicle: +219%
NZM mice [1]; G3 0.3 mg/kg ip, 1× wk
  ASC chromatin EOS, percent change vs vehicle: −46%
  ASC total IgG EOS, percent change vs vehicle: −1%
NZM mice [1]; G4 0.3 mg/kg ip, 2× wk
  ASC chromatin EOS, percent change vs vehicle: −74%
  ASC total IgG EOS, percent change vs vehicle: −31%
NZM mice [2]; G3 0.3 mg/kg ip, 1× wk
  Serum CTx linker AUC, percent change vs vehicle: −27%
NZM mice [2]; G4 0.3 mg/kg ip, 2× wk
  Serum CTx linker AUC, percent change vs vehicle: −35%
NZM mice [2]
  serum CTx levels compared to vehicle: no change in CTx levels

## C[C@@H]1C[C@H]2[C@@H]3CCC4=CC(=O)C=C[C@]4(C)[C@@]3(F)[C@@H](O)C[C@]2(C)[C@@]1(O)C(=O)CO [dexamethasone, Dexamethasone, reference compound]
MRL/lpr mice; G6: 1.5 mg/kg ip, 3× wk
  ASC EOS Smith Ag, percent change vs vehicle: +40%
  ASC EOS chromatin, percent change vs vehicle: −22%
  ASC EOS dsDNA, percent change vs vehicle: +129%
NZM mice [1]; G5 1.5 mg/kg ip, 3× wk
  ASC chromatin EOS, percent change vs vehicle: −42%
  ASC total IgG EOS, percent change vs vehicle: +19%
NZM mice [1]; G8 1.5 mg/kg 3× wk ip
  p, frequency of total IgG antibody secreting cells in spleen vs G7 CTX 50 mg/kg 1× wk ip: p < 0.01
NZM mice [2]; G5 1.5 mg/kg ip, 3× wk
  Serum CTx linker AUC, percent change vs vehicle: 21%
NZM mice [2]; G8 1.5 mg/kg 3× wk ip
  p, serum concentration of collagen type I cross-linker vs G5 Bortezomib 0.3 mg/kg 1× wk ip: p < 0.05
  p, serum concentration of collagen type I cross-linker vs G6 Bortezomib 0.3 mg/kg 2× wk ip: p < 0.01
